Source: patent publication US20190248834A1, “ENDOMORPHIN-2, TETRAPEPTIDE DERIVATIVES THEREOF, AND USES THEREOF” (priority 2016, published 2019)
Non-standard residues stand in square brackets, D forms with d. pGlu = O=C1CC[C@@H](C(=O)O)N1

Legend:
Type in all cases: in vivo, human
[1] = tested on: psoriatic arthritis pain, fingers and wrists; assay: Example 48: comparative analgesic efficacy, psoriatic arthritis pain of fingers and wrists, topical; conditions: 1% (w/v) in WEP442, topical
Excerpt: […] Treatment of the subject over the years included methotrexate and other antimetabolites, and in recent years drugs known as biologic medications. While these agents have provided intervals of relief, none has provided a lasting benefit. Over the past decade, painful arthritis developed in both wrists and in numerous joints of the fingers. Four related tetrapeptide derivatives, 1% (w/v) solution compositions in vehicle WEP442, one at a time, were topically applied to the fingers and wrists of both hands. […] Efficacy was rated by the subject as 4+. • (B) N-Ac-Tyr-Pro-Phe-Phe-NHNH2 (SEQ ID NO: 31) provided slow relief of pain, i.e. within about 10 minutes. […] Analgesic efficacy was judged by the subject to be 0 to 1+.

[2] = tested on: bursitis of the right elbow; assay: Example 36: analgesic effect on pain of elbow bursitis, topical
Excerpt: A subject had painful bursitis of the right elbow that impaired their performance as a golfer. […] They played golf later the same day and experienced no bursitis pain during the game.

intense headaches = assay: Example 33: analgesic effect on recurring headaches, topical; conditions: 0.8% (w/v) in EP73, topical
Procedure: A subject with intense headaches after several hours of using a computer in their work as a real estate agent, topically applied to the forehead and temporal areas a composition containing 0.8% (w/v) of N-Ac-Tyr-Pro-Phe-Phe-NH2 (SEQ ID NO: 23)0 in EP73, formulated as described in Example 2. […] Such headaches, occurring 1-2 times weekly, were treated in the same manner over a 2 month interval, with headache pain being relieved each time.

[3] = tested on: knee pain, lateral meniscus; assay: Example 58: analgesic effect on knee pain due to injured lateral meniscus, topical; conditions: 1% (w/v) in WEP442, topical
Excerpt: A subject had knee pain at the site of the lateral meniscus of the right knee, secondary to repeated trauma in the course of their work as a house builder. They evaluated two (2) tetrapeptide derivatives for efficacy in relieving this pain, including N-Ac-Tyr-Pro-Phe-Phe-NH2 (SEQ ID NO: 23) and N-Pg-Tyr-Pro-Phe-Phe-NH2 (SEQ ID NO: 44), both as a 1% (w/v) solution composition in WEP442. One solution composition was topically applied during the course of a day; and the other solution composition was topically applied during the course of the following day. The evaluation continued over a period of 8 days in this schedule.

[4] = tested on: psoriatic arthritis in the joints of both feet; assay: Example 62: analgesic efficacy of psoriatic arthritis, feet, topical; conditions: 1% (w/v) in WEP442, topical
Procedure: A subject with plague psoriasis had painful psoriatic arthritis in the joints of both feet for the past 10-12 years. Topical application of a composition containing 1% (w/v) of N-Ac-Tyr-Pro-Phe-Phe-NH2 (SEQ ID NO: 23) in WEP442 relieved the pain so that it was undetectable for 6-8 hours. Daily topical applications of the formulation for 5 days provided the same relief.

pain from MTSS = assay: Example 22: analgesic effect on medial tibial stress syndrome, topical
Excerpt: A small statured person, caretaker of an over-weight disabled elderly person, every evening suffers pain from MTSS of the left lower leg that is due to repeated use of the left leg to lift their patient throughout the day. Their sleeping has been repeatedly disturbed by the pain. […] They followed this sequence of procedures daily for one week work shift with the same result of rapid absolute relief of pain. During the week of being off from work, the MTSS is absent.

[5] = tested on: severe nauseating headache; assay: Example 60: analgesic effect on headache due to inhalation of exhaust fumes, topical; conditions: 0.5% (w/v) in WEP442, topical
Excerpt: A construction worker, suffered a severe nauseating headache on a day when, for about an hour, they were exposed to exhaust fumes from a gasoline motor driven dust blower early in the day. The headache persisted all day and into the evening.

tennis elbow pain = assay: Example 68: analgesic effect on tennis elbow pain, topical
Excerpt: A person who played tennis recreationally for several decades developed increasingly severe pain in the elbow of their right arm. Two acupuncture treatments provided partial relief. […] They now play tennis with no pain.

[6] = tested on: very severe osteoarthritis of the knees; assay: Example 45: analgesic effect on osteoarthritic knees, topical lotion; conditions: 1% (w/w) lotion
Procedure: One gram of the tetrapeptide derivative N-Pg-Tyr-Pro-Phe-Phe-NH2(SEQ ID NO: 44) was dissolved in propylene glycol (33 ml) and diisopropyl adipate (33 ml), and the resultant solution was mixed with an oil-in-water emulsion (33 g) to yield a light lotion containing 1% (w/w) of […] (SEQ ID NO: 44). This lotion was generously applied topically to the knees and lower legs of a subject, having very severe osteoarthritis of the knees for many years. After topical application of the lotion to the lower legs and knees, plastic film was applied to cover the treated areas. The plastic film was removed 8 hours later. […] Pain began to return after about 4 days.

[7] = tested on: chronic osteoarthritis of the knees; assay: Example 53: comparative analgesic efficacy in topical treatment of knee osteoarthritis; conditions: 1% (w/v) in WEP442, maintenance treatment twice daily
Procedure: A subject with chronic osteoarthritis of the knees participated in this study. Each tetrapeptide derivative was dissolved in WEP442 to make a 1% (w/v) solution. Early in the morning, the solution was applied to a knee, which was immediately wrapped in plastic film from a roll 5 inches wide. The film wrap was left in place for about 7-8 hours, and then it was removed. Such application was repeated at bedtime and removed several hours later during the night. Each 1% (w/v) solution of tetrapeptide derivative was so applied for 2 days and efficacy was evaluated by the subject. No topical treatment was made during an ensuing interval of 2-3 days, at which time treatment with a 1% (w/v) solution of another derivative was initiated and carried out as described above. In total, six tetrapeptide derivatives were evaluated for analgesic efficacy.
The following tetrapeptide derivative was judged to provide 2+ to 3+ pain relief by clinical evaluation: N-Pa-Tyr-Pro-Phe-Phe-NH2(SEQ ID NO: 64).
After the above evaluation period, maintenance treatment was done with a composition containing 1% (w/v) of N-Pg-Tyr-Pro-Phe-Phe-NH2 (SEQ ID NO: 44) in WEP442 applied twice daily.

CC(=O)N[C@@H](Cc1ccc(O)cc1)C(=O)N1CCC[C@H]1C(=O)N[C@@H](Cc1ccccc1)C(=O)N[C@@H](Cc1ccccc1)C(N)=O [N-Ac-Tyr-Pro-Phe-Phe-NH2]
pain relief [1]: rapid complete relief of pain
pain relief ([2]; 0.8% (w/v) in WEP442, topical): complete loss of pain
time to pain relief ([2]; 0.8% (w/v) in WEP442, topical): ≤ 2 min
duration of pain relief ([2]; 0.8% (w/v) in WEP442, topical in the afternoon): Pain did not recur until the next morning
pain relief (intense headaches): Complete headache relief
time to pain relief (intense headaches): ≤ 1 min
duration of pain relief [3]: about 4 hours
pain relief [3]: complete relief of pain
duration of pain relief [4]: 6 to 8 h
pain relief [4]: undetectable
pain relief (pain from MTSS; 1% (w/v) in WEP442, single topical application): completely relieved the pain
duration of pain relief (pain from MTSS; 1% (w/v) in WEP442, topical): No pain occurred until the next evening
time to pain relief (pain from MTSS; 1% (w/v) in WEP442, topical): ≤ 1 min
pain relief [5]: completely relieved the headache
time to pain relief [5]: ≤ 2 min
range of arm motion (tennis elbow pain; 0.5% (w/v) in WEP442, about 1 week of several applications daily): returned to normal
pain relief (tennis elbow pain; 0.5% (w/v) in WEP442, topical): substantial relief of pain
time to pain relief (tennis elbow pain; 0.5% (w/v) in WEP442, topical): 2 to 4 min

N-Pg-Tyr-Pro-Phe-Phe-NH2 ([pGlu]YPFF-NH2; SMILES NC(=O)[C@H](Cc1ccccc1)NC(=O)[C@H](Cc1ccccc1)NC(=O)[C@@H]1CCCN1C(=O)[C@H](Cc1ccc(O)cc1)NC(=O)[C@@H]1CCC(=O)N1)
time to return of pain [6]: about 4 days
pain relief ([6]; under plastic film 8 hours, daily for 3 days): pain had subsided almost completely
knee pain compared to several months earlier [7]: the knee pain was substantially less
pain relief [1]: rapid relief of pain
duration of pain relief [3]: about 4 hours
pain relief [3]: complete relief of pain
